The record followed here is ChEMBL document CHEMBL5543084, “Development of cannabidiol derivatives as potent broad-spectrum antibacterial agents with membrane-disruptive mechanism” (Eur J Med Chem, 2024).

In brackets after ≈: the same amount, converted by molar mass.

The subject of data set [1] is Staphylococcus aureus. Briefly: Antibacterial activity against Staphylococcus aureus ATCC 29213 assessed as inhibition of bacterial growth incubated for 24 hrs by broth dilution method. The data set is classed as functional. Background: Dilution methods test growth across graded concentrations, often in twofold steps.
Data set [2] has as its system Staphylococcus aureus. Briefly: Antibacterial activity against methicillin-resistant Staphylococcus aureus N315 assessed as inhibition of bacterial growth incubated for 24 hrs by broth dilution method. Type of data set: functional.
Data set [3] concerns Staphylococcus aureus. As to the kind of experiment: Antibacterial activity against methicillin-resistant Staphylococcus aureus NCTC 10442 assessed as inhibition of bacterial growth incubated for 24 hrs by broth dilution method. Type of data set: functional.
The subject of data set [4] is Escherichia coli. Briefly: Antibacterial activity against Escherichia coli ATCC 25922 assessed as inhibition of bacterial growth incubated for 24 hrs by broth dilution method. Type of data set: functional.
The subject of data set [5] is Acinetobacter baumannii. As to the kind of experiment: Antibacterial activity against Acinetobacter baumannii ATCC 17978 assessed as inhibition of bacterial growth incubated for 24 hrs by broth dilution method. Type of data set: functional.
The test system of data set [6] is Acinetobacter baumannii. As to the kind of experiment: Antibacterial activity against Acinetobacter baumannii R2889 assessed as inhibition of bacterial growth incubated for 24 hrs by broth dilution method. The data set is classed as functional.
The subject of data set [7] is Klebsiella pneumoniae. Briefly: Antibacterial activity against Klebsiella pneumoniae ATCC 14581 assessed as inhibition of bacterial growth incubated for 24 hrs by broth dilution method. The data set is classed as functional.
Data set [8] concerns Klebsiella pneumoniae. Briefly: Antibacterial activity against Klebsiella pneumoniae ATCC 10031 assessed as inhibition of bacterial growth incubated for 24 hrs by broth dilution method. Type of data set: functional.
Data set [9] concerns Pseudomonas aeruginosa. As to the kind of experiment: Antibacterial activity against Pseudomonas aeruginosa ATCC 9027 assessed as inhibition of bacterial growth incubated for 24 hrs by broth dilution method. Type of data set: functional.
Data set [10] can be described thus: Hemolytic activity against rabbit blood cells incubated for 1 hr relative to control. The data set is classed as toxicity, cell-based, Oryctolagus cuniculus, Erythrocyte. The conditions noted are these: rabbit blood cells (erythrocytes).

As for `C=C(C)[C@@H]1CCC(C)=C[C@H]1c1c(OCCCCNC(=N)N)cc(CCCCC)cc1OCCCCNC(=N)N`, the MIC (commonly the lowest concentration found to suppress growth) came out at 0.78 µg/mL (≈ 1.44 µM) in data set [1]; 0.39 µg/mL (≈ 0.721 µM) in [2]; 0.78 µg/mL (≈ 1.44 µM) in [3]; 0.78 µg/mL (≈ 1.44 µM) in data set [4]; 1.56 µg/mL (≈ 2.88 µM) in data set [5]; 0.78 µg/mL (≈ 1.44 µM) in data set [6]. Further, the MIC is 0.78 µg/mL (≈ 1.44 µM) in data set [7], 1.56 µg/mL (≈ 2.88 µM) in [8] and 6.25 µg/mL (≈ 11.6 µM) in data set [9]. Besides, the HC50 (commonly the concentration giving 50% haemolysis) at 1 h in data set [10] was found to be 98.4 µg/mL.

Regarding `C=C(C)[C@@H]1CCC(C)=C[C@H]1c1c(OCCCCNCCC)cc(CCCCC)cc1OCCCCNCCC`, the MIC was found to be 3.12 µg/mL (≈ 5.78 µM) in data set [1]; 3.12 µg/mL (≈ 5.78 µM) in data set [2]; 1.56 µg/mL (≈ 2.88 µM) in [3]; 25 µg/mL (≈ 46.2 µM) in [4]; 12.5 µg/mL (≈ 23.1 µM) in data set [5]; 12.5 µg/mL (≈ 23.1 µM) in data set [6]. For the same compound, the MIC in data set [7] was 25 µg/mL (≈ 46.2 µM); in data set [8], 12.5 µg/mL (≈ 23.1 µM); in data set [9], greater than 50 µg/mL. The HC50 at 1 h in data set [10] is 79.3 µg/mL.

`C=C(C)[C@@H]1CCC(C)=C[C@H]1c1c(OCCCCCN)cc(CCCCC)cc1OCCCCCN`: the MIC came to 3.12 µg/mL (≈ 6.45 µM) in data set [1]; 3.12 µg/mL (≈ 6.45 µM) in [2]; 1.56 µg/mL (≈ 3.22 µM) in [3]; 6.25 µg/mL (≈ 12.9 µM) in data set [4]; 6.25 µg/mL (≈ 12.9 µM) in data set [5]; 12.5 µg/mL (≈ 25.8 µM) in data set [6]. In addition, the figures for the MIC in [7], in data set [8] and in [9] were 6.25 µg/mL (≈ 12.9 µM), 6.25 µg/mL (≈ 12.9 µM) and greater than 50 µg/mL, respectively. For the same compound, the HC50 at 1 h in [10] was 65.9 µg/mL.

As for `C=C(C)[C@@H]1CCC(C)=C[C@H]1c1c(O)cc(CCCCC)cc1O` [CANNABIDIOL], the MIC was 3.12 µg/mL (≈ 9.94 µM) in data set [1]; 1.56 µg/mL (≈ 4.96 µM) in [2]; 3.12 µg/mL (≈ 9.94 µM) in [3]; greater than 100 µg/mL in data set [4]; greater than 50 µg/mL in [5]; greater than 50 µg/mL in data set [6]. Moreover, the MIC in [7], in data set [8] and in [9] was greater than 50 µg/mL each time. In data set [10], this compound yielded an HC50 at 1 h greater than 200 µg/mL.

On to `C=C(C)[C@@H]1CCC(C)=C[C@H]1c1c(OCCCCN(C)CCCN(C)CCCNC)cc(CCCCC)cc1OCCCCN(C)CCCN(C)CCCNC`, for which the MIC in data set [1] was 1.56 µg/mL (≈ 2.03 µM); in data set [2] it was 3.12 µg/mL (≈ 4.06 µM); in data set [3] it was 1.56 µg/mL (≈ 2.03 µM); in data set [4], 3.12 µg/mL (≈ 4.06 µM); in data set [5] it was 6.25 µg/mL (≈ 8.12 µM); in data set [6], 3.12 µg/mL (≈ 4.06 µM). Also, the MIC in data set [7], in data set [8] and in data set [9] was 6.25 µg/mL (≈ 8.12 µM) in each case. Moreover, in data set [10], the HC50 at 1 h was greater than 200 µg/mL.

Regarding `C=C(C)[C@@H]1CCC(C)=C[C@H]1c1c(OCC(=O)N[C@@H](CCCNC(=N)N)C(N)=O)cc(CCCCC)cc1OCC(=O)N[C@@H](CCCNC(=N)N)C(N)=O`, the MIC in data set [1] is 12.5 µg/mL (≈ 16.9 µM); in data set [2], 12.5 µg/mL (≈ 16.9 µM); in data set [3] it was 12.5 µg/mL (≈ 16.9 µM); in data set [4] it was greater than 50 µg/mL; in data set [5], 50 µg/mL (≈ 67.5 µM); in data set [6], greater than 50 µg/mL. The minimal inhibitory concentration (MIC) was greater than 50 µg/mL in [7], greater than 50 µg/mL in data set [8] and 50 µg/mL (≈ 67.5 µM) in data set [9]. Moreover, the HC50 at 1 h in data set [10] was greater than 200 µg/mL.

Consider `C=C(C)[C@@H]1CCC(C)=C[C@H]1c1c(OCCCCCCBr)cc(CCCCC)cc1OCCCCCCBr`, for which the MIC in [1] is greater than 50 µg/mL; in data set [2], greater than 50 µg/mL; in data set [3], greater than 50 µg/mL; in [4], greater than 100 µg/mL; in data set [5], greater than 50 µg/mL; in [6] it was greater than 50 µg/mL. Besides, the MIC in data set [7], in data set [8] and in data set [9] was greater than 50 µg/mL throughout. In addition, the HC50 at 1 h in data set [10] was greater than 200 µg/mL.

As to `C=C(C)[C@@H]1CCC(C)=C[C@H]1c1c(OCCCCN2CCCC2)cc(CCCCC)cc1OCCCCN1CCCC1`, the MIC in data set [1] was 3.12 µg/mL (≈ 5.53 µM); in data set [2] it was 3.12 µg/mL (≈ 5.53 µM); in data set [3], 3.12 µg/mL (≈ 5.53 µM); in data set [4], 12.5 µg/mL (≈ 22.1 µM); in data set [5], 25 µg/mL (≈ 44.3 µM); in data set [6], 12.5 µg/mL (≈ 22.1 µM). The MIC in data set [7] was 25 µg/mL (≈ 44.3 µM); in [8] it was 12.5 µg/mL (≈ 22.1 µM); in data set [9] it was 25 µg/mL (≈ 44.3 µM). The HC50 at 1 h in data set [10] was determined as 174 µg/mL.

As to `C=C(C)[C@@H]1CCC(C)=C[C@H]1c1c(OCC(=O)N[C@@H](CCCNC(=N)N)C(=O)N[C@@H](CCCNC(=N)N)C(=O)OC)cc(CCCCC)cc1OCC(=O)N[C@@H](CCCNC(=N)N)C(=O)N[C@@H](CCCNC(=N)N)C(=O)OC`, the MIC in data set [1] was determined as 1.56 µg/mL (≈ 1.44 µM); in [2], 1.56 µg/mL (≈ 1.44 µM); in data set [3], 1.56 µg/mL (≈ 1.44 µM); in data set [4] it was 50 µg/mL (≈ 46.2 µM); in [5] it was 25 µg/mL (≈ 23.1 µM); in [6], 50 µg/mL (≈ 46.2 µM). The MIC was greater than 50 µg/mL in data set [7], 50 µg/mL (≈ 46.2 µM) in data set [8] and 50 µg/mL (≈ 46.2 µM) in data set [9]. In addition, in data set [10], the HC50 at 1 h was greater than 200 µg/mL.

For the compound `C=C(C)[C@@H]1CCC(C)=C[C@H]1c1c(OCCCCCCCCCCBr)cc(CCCCC)cc1OCCCCCCCCCCBr`, the MIC in data set [1], in [2], in [3], in data set [4], in data set [5] and in data set [6] was greater than 50 µg/mL in each case. In addition, the minimum inhibitory concentration (MIC) in data set [7], in data set [8] and in data set [9] was greater than 50 µg/mL each time. Further, the concentration for 50% haemolysis (HC50) at 1 h in data set [10] was greater than 200 µg/mL.
